# Results: paper PMC10611374, “Characterization of the Hemolytic Activity of Mastoparan Family Peptides from Wasp Venoms” (Toxins, 2023)
# Values joined by “and” are separate entries in the source; they are usually repeats but may differ in a detail not shown here. Equal entries are not always repeated. Where two headings read alike, the source gives them in different places. Ends that are not written are not given here.
# What was measured:
# [1] = test system: human red blood cells (HRBCs); experiment: Hemolytic assay on human red blood cells; assay type: cell-based; conditions: human red blood cells 5% (v/v) in PBS, 37 °C 1 h, OD 540 nm; for HRBC Hemolysis (hemolysis rate at 320 μg/mL): peptide 320 μg/mL (highest dose), PBS = 0%, mean of three independent experiments; for EC50: four-parameter logistic fit of mean of three independent experiments, '-' = hemolytic activity too low to calculate the EC50
# Description: (§1) Fresh human red blood cells were obtained from healthy donors and collected in a sterile blood collecting vessel covered with sodium citrate (1:9) as the anticoagulating agent. Rat red blood cells were collected from the abdominal aorta in sterile blood-collecting vessels coated with sodium citrate (1:4) after the SD rats were anaesthetized with isoflurane. Then, the cells were washed three times with phosphate-buffered saline via centrifugation (1000× g, 4 °C, 5 min) and prepared in a sterile 96-well polypropylene plate to achieve a final concentration of 5% (v/v). Twofold dilutions of the peptides were prepared in PBS to 100 μL and mixed with an equal volume of HRBCs/RRBCs suspension to final peptide concentrations ranging from 10 to 320 μg/mL. After coincubation at 37 °C for 1 h, the plate was centrifuged (2000× g, 4 °C, 20 min), and 100 μL of supernatant was taken for optical density measurements at 540 nm using a microtiter plate reader (SpectraMax 190). The HRBCs/RRBCs were assayed with PBS (blank) or 1% Triton X-100 (positive control) to represent 0% and 100% hemolysis, respectively. The percent hemolysis was calculated according to the following equation: Hemolysis Rate (%) = 100% × (Amastoparans − Ablank)/(ATriton X-100 − Ablank). Three independent experiments were performed, and the mean hemolysis rate at each dose was used to calculate the EC50 in Sigmaplot software.
# (§2) Statistical analysis was performed with GraphPad Prism software (version 5.0, San Diego, CA, USA). A two-tailed Student’s t-test was used to calculate the statistical probability in this study. Differences in the data were considered to be statistically significant when the p value was equal to or less than 0.05. The curve of hemolysis induced by wasp mastoparans was generated in SigmaPlot 12.5 software, and the EC50 was calculated according to the equation (Four Parameter Logistic Curve): y = min + (max − min)/(1 + (x/EC50)^−Hillslope). The heat map of hemolytic activity of mastoparan peptide was analysed in R software which is based on the value of log2(EC50).
# [2] = test system: rat red blood cells (RRBCs); experiment: Hemolytic assay on rat red blood cells; assay type: cell-based, SD rats; conditions: rat red blood cells 5% (v/v) in PBS, 37 °C 1 h, OD 540 nm; for RRBC Hemolysis (hemolysis rate at 320 μg/mL): peptide 320 μg/mL (highest dose), PBS = 0%, mean of three independent experiments; for EC50: four-parameter logistic fit of mean of three independent experiments, '-' = hemolytic activity too low to calculate the EC50
# Description: as §1, §2
# [3] = peptide 10-320 μg/mL twofold dilutions, 1% Triton X-100 = 100%, read-out: RRBC EC50 (hemolytic activity)
# [4] = peptide 10-320 μg/mL twofold dilutions, 1% Triton X-100 = 100%, read-out: HRBC EC50 (hemolytic activity)
# [5] = Table 2 series, read-out: HRBC EC50 (hemolytic activity), Protopolybia-MPIII and mutants
# [6] = Table 2 series, read-out: RRBC EC50 (hemolytic activity), Protopolybia-MPIII and mutants
Molecule,HRBC Hemolysis (hemolysis rate at 320 μg/mL) ([1]; 1% Triton X-100 = 100%) [%],RRBC Hemolysis (hemolysis rate at 320 μg/mL) ([2]; 1% Triton X-100 = 100%) [%],"EC50 [2, 3] [µM]","EC50 [1, 4]","EC50 ([1]; peptide 10-320 μg/mL twofold dilutions, 1% Triton X-100 = 100%, listed as Polybia-MPI, read-out: HRBC EC50 (hemolytic activity)) [µM]","EC50 [1, 5] [µM]","EC50 [2, 6] [µM]"
CC[C@H](C)[C@H](NC(=O)[C@H](CC(=O)O)NC(=O)[C@@H](N)Cc1ccccc1)C(=O)N[C@@H](CCSC)C(=O)NCC(=O)N[C@@H](CC(C)C)C(=O)N[C@H](C(=O)N[C@@H](CCCCN)C(=O)N[C@@H](CCCCN)C(=O)N[C@H](C(=O)N[C@@H](C)C(=O)NCC(=O)N[C@@H](C)C(=O)N[C@@H](CC(C)C)C(N)=O)C(C)C)[C@@H](C)CC [EMP-ER],25,46,231 ± 3.7,–,–,–,–
CC[C@H](C)[C@H](N)C(=O)N[C@@H](CC(N)=O)C(=O)N[C@@H](CC(C)C)C(=O)N[C@@H](CCCCN)C(=O)N[C@@H](C)C(=O)N[C@@H](CC(C)C)C(=O)N[C@@H](C)C(=O)N[C@@H](C)C(=O)N[C@@H](CC(C)C)C(=O)N[C@@H](C)C(=O)N[C@@H](CCCCN)C(=O)N[C@@H](CCCCN)C(=O)N[C@H](C(=O)N[C@@H](CC(C)C)C(N)=O)[C@@H](C)CC [Mastoparan (L)],100,41,242 ± 2.6,82.9 ± 3.8 µM,–,–,–
FDLLGLVKKVASAL-NH2 [EpVP2a],79,41,239 ± 7.6,152 ± 6.3 µM,–,–,–
FDLLGLVKSVVSAL-NH2 [EpVP2b],100,100,50.6 ± 2.6,34.1 ± 3.5 µM,–,–,–
FDVMGIIKKIASAL-NH2 [EMP-EF],100,48,216.8 ± 1.6,125 ± 20.6 µM,–,–,–
GRILSFIKGLAEHL-NH2 [EMP-OD],2,49,190 ± 32,–,–,–,–
IDWKKLLDAAKQIL-NH2 [Polybia-MP I],56,100,51.4 ± 2.2,177 ± 7 µM,≤ 400,–,–
IDWLKLGKMVMDVL-NH2 [Polybia-MP III],79,100,74.8 ± 10.4,38.5 ± 5.9 µM,–,–,–
IDWLKLRVISVIDL-NH2 [Polybia-MP IV],0,0,> 400,> 400 µM,–,–,–
IKWKAILDAVKKVL-NH2 [Mastoparan-A],7,56,183 ± 3.4,–,–,–,–
INLFGFAALVKKFL-NH2 [Mastoparan-T4],100,100,17.6 ± 2.4,28.5 ± 2.3 µM,–,–,–
INLKAIAALAKKLF-NH2 [Mastoparan AF],47,92,107 ± 15.7,227 ± 3.1 µM,–,–,–
INLKAIAALVKKVL-NH2 [HR1],56,39,253 ± 13,198 ± 8.9 µM,–,–,–
INLKALAALVKKVL-NH2 [Mastoparan-II],78,90,147 ± 3.4,134.6 ± 1.2 µM,–,–,–
INLKALLAVAKKIL-NH2 [Mastoparan-C],100,100,64.4 ± 10.7,–,–,–,–
INLKVFAALVKKFL-NH2 [Mastoparan-T1],100,87,22.7 ± 7.1,30.8 ± 1.6 µM,–,–,–
INLKVFAALVKKLL-NH2 [Mastoparan-T2],100,100,21.1 ± 2.4,11.8 ± 3.1 µM,–,–,–
INLLKIAKGIIKSL-NH2 [EMP-AF],100,100,122 ± 13.1,111 ± 9.8 µM,–,–,–
INLRGFAALVKKFL-NH2 [Mastoparan-T3],100,100,51.6 ± 2.1,112 ± 8 µM,–,–,–
INMKAVAAVAKKPL-NH2 [MP-VB2],0,0,–,–,–,–,–

Molecule,HRBC Hemolysis (hemolysis rate at 320 μg/mL) ([1]; 1% Triton X-100 = 100%) [%],RRBC Hemolysis (hemolysis rate at 320 μg/mL) ([2]; 1% Triton X-100 = 100%) [%],"EC50 [2, 3] [µM]","EC50 [1, 4]","EC50 ([1]; peptide 10-320 μg/mL twofold dilutions, 1% Triton X-100 = 100%, listed as Polybia-MPI, read-out: HRBC EC50 (hemolytic activity)) [µM]","EC50 [1, 5] [µM]","EC50 [2, 6] [µM]"
INWAKLGKLALQAL-NH2 [Ropalidia-MP],100,94,122 ± 4.3,42.5 ± 1.7 µM,–,–,–
INWHDIAIKNIDAL-NH2 [Polybia-MP V],0,0,> 400,> 400 µM,–,–,–
INWKAIIEAAKQAL-NH2 [Protopolybia-MPII],13,24,> 400,> 400 µM,–,–,–
INWKAILQRIKKML-NH2 [Agelaia-MPII],100,97,62.1 ± 3.8,44.8 ± 10.4 µM,–,–,–
INWKALLDAAKKVL-NH2 [Protonectarina-MP],100,35,326 ± 26.4,–,–,–,–
INWKGIAAMAKKLL-NH2 [Mastoparan-X(V)],29,70,156 ± 2.4,≤ 400 µM and 349 µM,–,–,–
INWKKIASIGKEVLKAL-NH2 [PMM2],100,100,80.9 ± 6.4,42.6 ± 2.5 µM,–,–,–
INWKKIFQKVKNLV-NH2 [PDD-A],30,27,–,354 ± 44.8 µM,–,–,–
INWKKIKSIIKAAMN-NH2 [Mastoparan-V1],9,16,–,–,–,–,–
INWKKIKSLIKAAMS-NH2 [Mastoparan-V2],15,52,182 ± 3.6,–,–,–,–
INWKKMAATALKMI-NH2 [Parapolybia-MP],32,22,–,≥ 400 µM and > 400 µM and 306 µM,–,–,–
INWLKLGKAIIDAL-NH2 [Agelaia-MPI],100,98,7 ± 0.7,3.7 ± 0.14 µM,–,–,–
INWLKLGKAVIAAL-NH2 [Protopolybia-MPIII-3],–,–,–,–,–,16.8 ± 1,21.5 ± 1.2
INWLKLGKAVIAIL-NH2 [Protopolybia-MPIII-10],–,–,–,–,–,11.3 ± 1.2,11.7 ± 1
INWLKLGKAVIDAL-NH2 [Protopolybia-MPIII],96,93,34.6 ± 2.8,61.9 ± 8.3 µM,–,–,42.8 ± 2.1
INWLKLGKAVIDIL-NH2 [Protopolybia-MPIII-4],–,–,–,–,–,11.3 ± 6.2,19.8 ± 1.2
INWLKLGKAVSAAL-NH2 [Protopolybia-MPIII-8],–,–,–,–,–,308 ± 6.2,444 ± 2.1
INWLKLGKAVSAIL-NH2 [Protopolybia-MPIII-11],–,–,–,–,–,141 ± 2.4,134 ± 2.2
INWLKLGKAVSDAL-NH2 [Protopolybia-MPIII-2],–,–,–,–,–,673 ± 189,639.5 ± 1.6
INWLKLGKAVSDIL-NH2 [Protopolybia-MPIII-9],–,–,–,–,–,167 ± 2.7,161.7 ± 1.3
